Reference: patent US11000033B2, “Ketone or oxime compound, and herbicide” (NISSAN CHEMICAL CORPORATION, priority 2014, dated 2021)

Tests used:
Assay type in all cases: in vivo
corn = experiment: Test Example 5: effect on crop by foliage application, plastic box (symbol c); conditions: 320 g/ha, 3 weeks after application
Method in brief: (§1)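 In a plastic box 7 cm deep filled with sterilized diluvial soil, seeds of crops and weeds such as Digitaria ciliaris, Avena fatua and Amaranthus retroflexus are sown in spots and covered with about 1.5 cm of soil before greenhouse growth at 25–30° C.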

Cyperus difformis = experiment: Test Example 3: herbicidal effect by foliage application, Wagner pot (symbol E); conditions: application herbicide amount 320 g/ha, Table 24
Method in brief: (§2)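 Steps: fill pot with alluvial soil; add water to 0.1–0.5 cm depth; sow weed and rice seed; grow 14 days at 25–30 °C; spray diluted emulsion over the leaves; rate effect after 3 weeks.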

Monochoria vaginalis = experiment: Test Example 1: herbicidal activity, application before weed generation in submerged conditions (symbol C); conditions: application herbicide amount 320 g/ha
From the text: (§3) Herbicidal Activity Test by Application Before Weed Generation in Submerged Conditions
(§4) After alluvial soil was placed into 1/10000 are of Wagner pot, water was poured and mixed to form a submerged condition having a water depth of 4 cm. Seeds of Echinochloa oryzacola Vasing., Scirpus juncoides, and Monochoria vaginalis were sowed in a mixed manner in the above pot and thereafter 2.5 leaf stage rice plant seedlings were transplanted thereto. On the day of sowing seeds, the emulsion agent of the compound of the present invention prepared in accordance with Formulation Example 2 was diluted with water so as to be a predetermined herbicide amount and the diluted emulsion agent was applied to the surface of the water. The pot was placed in a greenhouse of 25° C. to 30° C. to grow plant. 3 weeks later from the herbicide application, the effect to each plant was investigated in accordance with the following criteria.
(§5) 5 Herbicidal ratio of 90% or more (almost completely withered)
(§6) 4 Herbicidal ratio of 70% or higher and lower than 90%
(§7) 3 Herbicidal ratio of 40% or higher and lower than 70%
(§8) 2 Herbicidal ratio of 20% or higher and lower than 40%
(§9) 1 Herbicidal ratio of 5% or higher and lower than 20%
(§10) 0 Herbicidal ratio of 5% or lower (almost no effect)

wheat = experiment: Test Example 5: effect on crop by foliage application, plastic box (symbol e); conditions: 320 g/ha, 3 weeks after application
Method in brief: as §1

[1] = tested on: Echinochloa crus-galli var. crus-galli; experiment: Test Example 5: herbicidal effect by foliage application, plastic box (symbol H); conditions: 320 g/ha, 3 weeks after application
Method in brief: (§11)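 Seeds were sown in sterilized diluvial soil, covered with about 1.5 cm of soil and grown 14 days in a greenhouse at 25° C. to 30° C. An emulsifiable formulation diluted in water to a set rate was sprayed over foliage, and injury was scored 3 weeks later.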

Stellaria media = experiment: Test Example 5: herbicidal effect by foliage application, plastic box (symbol P); conditions: 320 g/ha, 3 weeks after application
Method in brief: as §11

Chenopodium album = experiment: Test Example 5: herbicidal effect by foliage application, plastic box (symbol O); conditions: 320 g/ha, 3 weeks after application
Method in brief: as §11

Galium spurium = experiment: Test Example 5: herbicidal effect by foliage application, plastic box (symbol Q); conditions: 320 g/ha, 3 weeks after application
Method in brief: as §11

[2] = tested on: Echinochloa oryzacola Vasing.; experiment: Test Example 1: herbicidal activity, application before weed generation in submerged conditions (symbol A); conditions: application herbicide amount 320 g/ha
From the text: as §3, §4, §5, §6, §7, §8, §9, §10

[3] = tested on: Echinochloa crus-galli var. crus-galli; experiment: Test Example 3: herbicidal effect by foliage application, Wagner pot (symbol H); conditions: application herbicide amount 320 g/ha, Table 24
Method in brief: as §2

Avena fatua = experiment: Test Example 5: herbicidal effect by foliage application, plastic box (symbol I); conditions: 320 g/ha, 3 weeks after application
Method in brief: as §11

Apera spica-venti = experiment: Test Example 5: herbicidal effect by foliage application, plastic box (symbol L); conditions: 320 g/ha, 3 weeks after application
Method in brief: as §11

soybean = experiment: Test Example 5: effect on crop by foliage application, plastic box (symbol d); conditions: 320 g/ha, 3 weeks after application
Method in brief: as §1

Veronica persica = experiment: Test Example 5: herbicidal effect by foliage application, plastic box (symbol R); conditions: 320 g/ha, 3 weeks after application
Method in brief: as §11

beet = experiment: Test Example 5: effect on crop by foliage application, plastic box (symbol f); conditions: 320 g/ha, 3 weeks after application
Method in brief: as §1

Digitaria ciliaris = experiment: Test Example 5: herbicidal effect by foliage application, plastic box (symbol F); conditions: 320 g/ha, 3 weeks after application
Method in brief: as §11

Abutilon theophrasti = experiment: Test Example 5: herbicidal effect by foliage application, plastic box (symbol M); conditions: 320 g/ha, 3 weeks after application
Method in brief: as §11

[4] = tested on: directly sowed rice plant; experiment: Test Example 3: effect on crop by foliage application, Wagner pot (symbol b); conditions: application herbicide amount 320 g/ha, Table 24
Method in brief: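 Alluvial soil in a 1/10000-are Wagner pot was flooded to a water depth of 0.1–0.5 cm. Echinochloa crus-galli var. crus-galli, Leptochloa chinensis, Cyperus difformis and rice were sown into it and grown in a greenhouse at 25–30 °C.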

Lolium multiflorum Lam. = experiment: Test Example 5: herbicidal effect by foliage application, plastic box (symbol K); conditions: 320 g/ha, 3 weeks after application
Method in brief: as §11

Setaria viridis = experiment: Test Example 5: herbicidal effect by foliage application, plastic box (symbol G); conditions: 320 g/ha, 3 weeks after application
Method in brief: as §11

Leptochloa chinensis = experiment: Test Example 3: herbicidal effect by foliage application, Wagner pot (symbol D); conditions: application herbicide amount 320 g/ha, Table 24
Method in brief: as §2

Amaranthus retroflexus = experiment: Test Example 5: herbicidal effect by foliage application, plastic box (symbol N); conditions: 320 g/ha, 3 weeks after application
Method in brief: as §11

Alopecurus myosuroides = experiment: Test Example 5: herbicidal effect by foliage application, plastic box (symbol J); conditions: 320 g/ha, 3 weeks after application
Method in brief: as §11

transplanted rice plant = experiment: Test Example 1: effect on crop, application before weed generation in submerged conditions (symbol a); conditions: application herbicide amount 320 g/ha
Experimental: as §3
as §4, with “On the day of sowing seeds, the emulsion agent of the compound of the present invention prepared in accordance with Formulation Example 2 was diluted with water so as to be a predetermined herbicide amount and the diluted emulsion agent was applied to the surface of the water.” left out
as §5, §6, §7, §8, §9, §10

rapeseed = experiment: Test Example 5: effect on crop by foliage application, plastic box (symbol g); conditions: 320 g/ha, 3 weeks after application
Method in brief: as §1

rice plant = experiment: Test Example 5: effect on crop by foliage application, plastic box (symbol b); conditions: 320 g/ha, 3 weeks after application
Method in brief: as §1

Scirpus juncoides = experiment: Test Example 1: herbicidal activity, application before weed generation in submerged conditions (symbol B); conditions: application herbicide amount 320 g/ha
From the text: as §3, §4, §5, §6, §7, §8, §9, §10

CC(CC1CC(OC(=O)N(C)C)=C(c2c(C)cc(-c3ccc(Cl)cc3)cc2C)C1=O)=NOCC(F)(F)F (mixture of isomers) [9-026]
c: corn, effect on crop grade (corn): 5 (Herbicidal ratio of 90% or more (almost completely withered))
E herbicidal effect grade (Cyperus difformis): 0 (Herbicidal ratio of 5% or lower (almost no effect))
C (Monochoria vaginalis) herbicidal effect grade (Monochoria vaginalis): 0 (Herbicidal ratio of 5% or lower (almost no effect))
e: wheat, effect on crop grade (wheat): 0 (Herbicidal ratio of 5% or lower (almost no effect))
H: Echinochloa crus-galli var. crus-galli, herbicidal effect grade [1]: 0 (Herbicidal ratio of 5% or lower (almost no effect))
P: Stellaria media, herbicidal effect grade (Stellaria media): 0 (Herbicidal ratio of 5% or lower (almost no effect))
O: Chenopodium album, herbicidal effect grade (Chenopodium album): 0 (Herbicidal ratio of 5% or lower (almost no effect))
Q: Galium spurium, herbicidal effect grade (Galium spurium): 0 (Herbicidal ratio of 5% or lower (almost no effect))
A (Echinochloa oryzacola Vasing.) herbicidal effect grade [2]: 4 (Herbicidal ratio of 70% or higher and lower than 90%)
H (Echinochloa crus-galli var. crus-galli) herbicidal effect grade [3]: 0 (Herbicidal ratio of 5% or lower (almost no effect))
I: Avena fatua, herbicidal effect grade (Avena fatua): 3 (Herbicidal ratio of 40% or higher and lower than 70%)
L: Apera spica-venti, herbicidal effect grade (Apera spica-venti): 0 (Herbicidal ratio of 5% or lower (almost no effect))
d: soybean, effect on crop grade (soybean): 0 (Herbicidal ratio of 5% or lower (almost no effect))
R: Veronica persica, herbicidal effect grade (Veronica persica): 0 (Herbicidal ratio of 5% or lower (almost no effect))
f: beet, effect on crop grade (beet): 0 (Herbicidal ratio of 5% or lower (almost no effect))
F: Digitaria ciliaris, herbicidal effect grade (Digitaria ciliaris): 5 (Herbicidal ratio of 90% or more (almost completely withered))
M: Abutilon theophrasti, herbicidal effect grade (Abutilon theophrasti): 0 (Herbicidal ratio of 5% or lower (almost no effect))
b (directly sowed rice plant) effect on crop grade [4]: 0 (Herbicidal ratio of 5% or lower (almost no effect))
K: Lolium multiflorum Lam., herbicidal effect grade (Lolium multiflorum Lam.): 0 (Herbicidal ratio of 5% or lower (almost no effect))
G: Setaria viridis, herbicidal effect grade (Setaria viridis): 4 (Herbicidal ratio of 70% or higher and lower than 90%)
D (Leptochloa chinensis) herbicidal effect grade (Leptochloa chinensis): 3 (Herbicidal ratio of 40% or higher and lower than 70%)
N: Amaranthus retroflexus, herbicidal effect grade (Amaranthus retroflexus): 0 (Herbicidal ratio of 5% or lower (almost no effect))
J: Alopecurus myosuroides, herbicidal effect grade (Alopecurus myosuroides): 0 (Herbicidal ratio of 5% or lower (almost no effect))
a (transplanted rice plant) effect on crop grade (transplanted rice plant): 0 (Herbicidal ratio of 5% or lower (almost no effect))
g: rapeseed, effect on crop grade (rapeseed): 0 (Herbicidal ratio of 5% or lower (almost no effect))
b: directly sowed rice plant, effect on crop grade (rice plant): 0 (Herbicidal ratio of 5% or lower (almost no effect))
B (Scirpus juncoides) herbicidal effect grade (Scirpus juncoides): 0 (Herbicidal ratio of 5% or lower (almost no effect))
